From the NIST ThermoML archive (doi:10.1021/je025534p) come the findings set out here.

Numbers after ± are expanded uncertainties.

A word on the vapor or sublimation pressure: it is the pressure of vapour in equilibrium with the condensed phase.

The conditions of this series: Liquid, Ebulliometric method (Recirculating still).

As for `CC1COC(C)O1` (centres undefined) [2,4-dimethyl-1,3-dioxolane], the “vapor or sublimation pressure” value was determined as 8.89 ± 4 kPa (298 K); 11.17 ± 4 kPa (303 K); 13.9 ± 4 kPa (308 K); 17.17 ± 4 kPa (313 K); 21.04 ± 4 kPa (318 K); 25.62 ± 4 kPa (323 K). Moreover, the “vapor or sublimation pressure” value (328 K) turned out to be 30.97 ± 4 kPa; the “vapor or sublimation pressure” value (333 K) stood at 37.21 ± 4 kPa; the “vapor or sublimation pressure” value (338 K) was 44.43 ± 4 kPa; the “vapor or sublimation pressure” value (343 K) stood at 52.75 ± 4 kPa; the “vapor or sublimation pressure” value (348 K) worked out at 62.29 ± 4 kPa; the “vapor or sublimation pressure” value (353 K) amounted to 73.16 ± 4 kPa. Besides, the “vapor or sublimation pressure” value is, setting by setting: (358 K) 85.51 ± 4 kPa; (363 K) 99.46 ± 4 kPa; (366 K) 99 ± 9.9 kPa.

Regarding `CC1OCCO1` [2-methyl-1,3-dioxolane], the “vapor or sublimation pressure” value is given as 11.29 ± 4 kPa (298 K); 14.2 ± 4 kPa (303 K); 17.72 ± 4 kPa (308 K); 21.98 ± 4 kPa (313 K); 27.07 ± 4 kPa (318 K); 33.15 ± 4 kPa (323 K). Further, the “vapor or sublimation pressure” value is, setting by setting: (328 K) 40.35 ± 4 kPa; (333 K) 48.83 ± 4 kPa; (338 K) 58.78 ± 4 kPa; (343 K) 70.39 ± 4 kPa; (348 K) 83.87 ± 4 kPa; (353 K) 99.46 ± 4 kPa. In addition, the “vapor or sublimation pressure” value (356 K) was determined as 99 ± 9.9 kPa.

`O` [water]: the “vapor or sublimation pressure” value (373 K) is 99 ± 9.9 kPa.
